From patent publication US20240246920A1, “TRIAZOLE DERIVATIVES WITH ANTIFUNGAL ACTIVITY” (King's College London, priority 2020, published 2024)
≈ marks a conversion by molar mass, not a printed value. Read-outs that look alike come from different tables or passages of the source.

Tests used:
[1] = test system: C. parapsilosis NCPF3209; assay: microbe, parasite or virus in culture; assay type: cell-based, Candida parapsilosis; settings: Lodderomyces parapsilosis
Procedure: (§1) The minimum inhibitory concentration of test compounds were determined in a panel of Candida species (see Table 4 below), using the a serial dilution method in 96-well plates using the following protocol.
(§2) Starter cultures of fungal strains to be tested were grown in 3 mL of RPMI 2% glucose media incubated at 37° C. with shaking at 200 rpm overnight. The culture media used was 900 mL H2O; 10.4 g RPMI 1640 (with L-glutamine and a pH indicator but without bicarbonate); 34.5 g MOPS and 18 g glucose. The pH of the media was adjusted to 7.0 with 1 M sodium hydroxide.
(§3) Solutions of the compound to be tested were prepared by dissolving the compound in DMSO and subsequently into media to the desired concentrations. […] The last two rows of each plate were control rows containing the culture media alone and the media plus fungi.
(§4) The fungi starter cultures were diluted 1:10 in water in cuvettes. This was then further diluted to an optical density (OD600) of 0.01 in media. 100 μL of the fungi was added to each well giving a starting concentration of fungus of 0.5-5×10^5/mL. One species of fungus was used on each plate. The plates were then held at 37° C. for 24 hours.
(§5) A plate reader was used to measure growth in each well at OD530 nm and the MIC was determined for each test compound. The MIC is defined as the lowest concentration giving rise to inhibition of ≥50% of that of the drug-free control well containing the fungus and media.

[2] = test system: C. albicans NCPF3281; assay: Candida panel MIC, serial dilution in 96-well plates; assay type: cell-based, Candida albicans; settings: Candida albicans, NCPF3281; Table 4, common panel; 24 hours, ≥50% inhibition; read-out: MIC C. albicans NCPF3281
Procedure: as §1, §2
(§6) Solutions of the compound to be tested were prepared by dissolving the compound in DMSO and subsequently into media to the desired concentrations. 200 μL of compound solution was then added to the wells of the 96-well plate using a serial dilution method row-by row of the plate to give a compound concentration gradient across the plate of from 128 μg/mL to 0.25 μg/mL. The last two rows of each plate were control rows containing the culture media alone and the media plus fungi.
as §4, §5

[3] = test system: C. tropicalis NCPF8760; assay: as above; assay type: cell-based
Procedure: as §1, §2, §6, §4, §5

[4] = test system: C. auris TDG1912; assay: as above; assay type: cell-based; settings: Candidozyma auris, TDG1912; Table 4; 24 hours, ≥50% inhibition; read-out: MIC C. auris TDG1912
Procedure: as §1, §2, §6, §4, §5

[5] = test system: C. krusei NCPF3876; assay: microbe, parasite or virus in culture; assay type: cell-based, Candida krusei; settings: Pichia kudriavzevii
Procedure: as §1, §2, §3, §4, §5

[6] = test system: C. glabrata NCPF8018; assay: Candida panel MIC, serial dilution in 96-well plates; assay type: cell-based, Candida glabrata; settings: Nakaseomyces glabratus
Procedure: as §1, §2, §3, §4, §5

[7] = test system: C. auris 8984; assay: as above; assay type: cell-based, Candida auris; settings: Candidozyma auris, 8984; Table 4, extended panel; 24 hours, ≥50% inhibition; read-out: MIC C. auris 8984
Procedure: as §1, §2, §3, §4, §5
(§7) The Candida auris strains shown in Table 7 were either taken from the National Collection of Pathogenic Fungi (NCPF) or collected as part of ongoing surveillance studies. The strains were characterised as follows.

[8] = test system: C. auris 8971; assay: as above; assay type: cell-based, Candida auris; settings: Candidozyma auris, 8971; Table 4, extended panel; 24 hours, ≥50% inhibition; read-out: MIC C. auris 8971
Procedure: as §1, §2, §3, §4, §5, §7

[9] = test system: C. auris 8977; assay: as above; assay type: cell-based, Candida auris; settings: Candidozyma auris, 8977; Table 4, extended panel; 24 hours, ≥50% inhibition; read-out: MIC C. auris 8977
Procedure: as §1, §2, §3, §4, §5, §7

[10] = test system: Candida auris TDG1102; assay: as above; assay type: cell-based; settings: Candidozyma auris, TDG1102; Table 4, extended panel; 24 hours, ≥50% inhibition; read-out: MIC Candida auris TDG1102
Procedure: as §1, §2, §6, §4, §5

[11] = test system: Candida auris TDG2512; assay: as above; assay type: cell-based; settings: Candidozyma auris, TDG2512; Table 4, extended panel; 24 hours, ≥50% inhibition; read-out: MIC Candida auris TDG2512
Procedure: as §1, §2, §6, §4, §5

[12] = test system: Candida auris TDG2211; assay: microbe, parasite or virus in culture; assay type: cell-based; settings: Candidozyma auris, TDG2211; Table 4, extended panel; 24 hours, ≥50% inhibition; read-out: MIC Candida auris TDG2211
Procedure: as §1, §2, §3, §4, §5, §7

[13] = test system: Candida auris TDG2506; assay: microbe, parasite or virus in culture; assay type: cell-based; settings: Candidozyma auris, TDG2506; Table 4, extended panel; 24 hours, ≥50% inhibition; read-out: MIC Candida auris TDG2506
Procedure: as §1, §2, §3, §4, §5, §7

[14] = NCPF3209, Table 4, common panel, 24 hours, ≥50% inhibition, read-out: MIC C. parapsilosis NCPF3209
[15] = NCPF8760, Table 4, common panel, 24 hours, ≥50% inhibition, read-out: MIC C. tropicalis NCPF8760
[16] = NCPF3876, Table 4, common panel, 24 hours, ≥50% inhibition, read-out: MIC C. krusei NCPF3876
[17] = NCPF8018, Table 4, common panel, 24 hours, ≥50% inhibition, read-out: MIC C. glabrata NCPF8018

Structure (SMILES): OC(CN1CCC2(CCN(Cc3ccccc3)CC2)CC1)(Cn1cncn1)c1ccc(F)cc1F (stereo not drawn) [Example 1, 1-(9-Benzyl-3,9-diazaspiro[5.5]undecan-3-yl)-2-(2,4-difluorophenyl)-3-(1H-1,2,4-triazol-1-yl)propan-2-ol]
- MIC [1, 14]: 4 to 8 µg/mL (≈ 8.31 to 16.6 µM)
- MIC [2]: 0.5 to 1 µg/mL (≈ 1.04 to 2.08 µM)
- MIC [3, 15]: 0.25 to 1 µg/mL (≈ 0.519 to 2.08 µM)
- MIC [4]: ≤ 0.125 µg/mL
- MIC [5, 16]: 1 to 2 µg/mL (≈ 2.08 to 4.15 µM)
- MIC [6, 17]: ≤ 0.125 µg/mL

Structure (SMILES): OC(CN1CCC2(CCN(c3ncc(F)cn3)CC2)C1)(Cn1cncn1)c1ccc(F)cc1F (stereo not drawn) [Example 7, 2-(2,4-Difluorophenyl)-1-(8-(5-fluoropyrimidin-2-yl)-2,8-diazaspiro[4.5]decan-2-yl)-3-(1H-1,2,4-triazol-1-yl)propan-2-ol]
- MIC ([1]; NCPF3209, read-out: MIC C. Parapsilosis NCPF3209): 0.004 µg/mL (≈ 0.00845 µM)
- MIC [1, 14]: 0.004 µg/mL (≈ 0.00845 µM)
- MIC [2]: < 0.008 µg/mL
- MIC [7]: 0.12 µg/mL (≈ 0.253 µM)
- MIC [8]: 0.03 µg/mL (≈ 0.0634 µM)
- MIC [9]: 0.002 µg/mL (≈ 0.00422 µM)
- MIC [10]: 0.25 µg/mL (≈ 0.528 µM)
- MIC [3, 15]: 0.015 µg/mL (≈ 0.0317 µM)
- MIC ([3]; NCPF8760, read-out: MIC C. Tropicalis NCPF8760): 0.015 µg/mL (≈ 0.0317 µM)
- MIC [4]: 0.12 µg/mL (≈ 0.253 µM)
- MIC [11]: 0.03 µg/mL (≈ 0.0634 µM)
- MIC [12]: 0.125 µg/mL (≈ 0.264 µM)
- MIC [13]: 0.5 µg/mL (≈ 1.06 µM)
- MIC ([5]; NCPF3876, read-out: MIC C. Krusei NCPF3876): 0.06 µg/mL (≈ 0.127 µM)
- MIC [5, 16]: 0.06 µg/mL (≈ 0.127 µM)
- MIC ([6]; NCPF8018, read-out: MIC C. Glabrata NCPF8018): 0.25 µg/mL (≈ 0.528 µM)
- MIC [6, 17]: 0.25 µg/mL (≈ 0.528 µM)

Structure (SMILES): OC(CN1CCCN(c2ncc(F)cn2)CC1)(Cn1cncn1)c1ccc(F)cc1F (stereo not drawn) [Example 8, 2-(2,4-Difluorophenyl)-1-(4-(5-fluoropyrimidin-2-yl)-1,4-diazepan-1-yl)-3-(1H-1,2,4-triazol-1-yl)propan-2-ol]
- MIC [1, 14]: 0.015 µg/mL (≈ 0.0346 µM)
- MIC [2]: < 0.015 µg/mL
- MIC [7]: 0.12 µg/mL (≈ 0.277 µM)
- MIC [8]: 0.12 µg/mL (≈ 0.277 µM)
- MIC [9]: 0.12 µg/mL (≈ 0.277 µM)
- MIC [10]: 1 µg/mL (≈ 2.31 µM)
- MIC [3, 15]: 1 µg/mL (≈ 2.31 µM)
- MIC [4]: 2 µg/mL (≈ 4.61 µM)
- MIC [11]: 2 µg/mL (≈ 4.61 µM)
- MIC [12]: 1 µg/mL (≈ 2.31 µM)
- MIC [13]: 8 µg/mL (≈ 18.5 µM)
- MIC [5, 16]: 0.5 µg/mL (≈ 1.15 µM)
- MIC [6, 17]: 0.25 µg/mL (≈ 0.577 µM)
